# Experimental data published in patent US20250130239A1, “PROTEIN DEGRADER” (University of Dundee, priority 2021, published 2025).
# Experiments:
# [1] = tested on: BromoTag-protein conjugates; assay: Degradation of a variety of BromoTag'ed target proteins (summary); type: cell-based; settings: treatment window of 100 nM-1 nM
# Excerpt: Degradation of a variety of target proteins. […] We performed CRISPR knock-in of the BromoTag, as described, into the endogenous loci of five additional proteins. […] The target proteins of Table 6 are all different, are all known to have different cellular roles and function, intracellular expression, and distinctive turnover rates within cells.
# [2] = tested on: 22RV1 cells; assay: CellTiter-Glo cell viability assay, 22RV1; type: cell-based, human; settings: up to 10 μM; 48 h
# Procedure: (§1) Cell Viability Assay. MV-4-11 cells were plated at a density of 2×10^4 cell per well of a 96 well white-bottom plate, and left to grow overnight in 50 μl of IMDM (Invitrogen, arlsebad, CA, USA) supplemented with 10% (v/v) Fetal bovine serum (FBS) (Thermo Fisher, Waltham, MA, USA) and 1% (v/v) penicillin/streptomycin (pen/strep) (#15140122, Thermo Fisher, Waltham, MA, USA) at 37° C., 5% CO2, and 95% humidity. […] These cells were then left to incubate at 37° C., 5% CO2, and 95% humidity for one day prior to undergoing spectrophotometric analysis. 22RV1 cells were plated at a density of 2×10^4 cell per well of a 96 well white-bottom plate, and left to grow overnight in 100 μL of RPMI-1640 (Invitrogen, Carlsebad, CA, USA) supplemented with 10% (v/v) fetal bovine serum (FBS) (Thermo Fisher, Waltham, MA, USA) and 1% (v/v) penicillin/streptomycin (pen/strep) (#15140122, Thermo Fisher, Waltham, MA, USA) at 37° C., 5% CO2, and 95% humidity. […] Plates were subjected to 2 mins on an orbital shaker to encourage lysis and left for a further 5 mins to reach peak luminescence. Luminescence was then recorded on a BMG Labtech PHERAstar luminescence plate reader with recommended settings. Data extracted from this analysis was analysed with Graphpad Prism (v. 8.2.0, GraphPad) and normalized to the DMSO vehicle control. […]
# [3] = tested on: MV-4-11 cells; assay: CellTiter-Glo cell viability assay, MV-4-11; type: cell-based, human; settings: up to 10 μM; 24 h
# Procedure: as §1
# [4] = target: T1, BromoTag-Brd2 (Homo sapiens, UniProt O60885+P40337, L387A); assay: Competition assay (inhibitor pre-treatment, then AGB1); type: cell-based; settings: then 200 nM 46 for 3 h
# T1 construct: comprising residues 368-440 of human Brd4; Brd2 (endogenous protein, fusion partner in the same polypeptide); eGFP-P2A (upstream marker in the knock-in cassette) (N, cleaved yes); expressed in transfected cells; host or cells: HEK293, heterozygous CRISPR knock-in at the endogenous BRD2 locus
# Procedure: Competition Assay. Heterozygous BromoTag-Brd2 HEK293 cells were plated in six-well plates at a density of 5×10^5 cells per well in 2 mL DMEM media. […] After 1 h, 200 nM of AGB1 was added to the previously compound treated cells. After a following 3 h the cells were harvested for subsequent processing via western blot. Each treatment was performed in tandem to produce two technical repeats per condition. The 6 well plates were incubated for 4 h at 37° C. and 5% CO2 throughout the experiment.
# Western Blotting. All cells were harvested on ice with RIPA lysis, and extraction buffer (ThermoFisher Scientific, 89901) supplemented with protease inhibitor cocktail (Merck, 11697498001) and Benzonase® Nuclease (Sigma, E1014) before being store at −20° C. prior to use. Total protein quantity was determined using the BCA protein assay (#23225, Pierce, Rockford, Illinois). Protein concentration was determined using the BCA assay (ThermoFisher Scientific, 23225). Samples were then prepared and loaded onto NuPAGE™ 4-12% Bis-Tris Midi gels (ThermoFisher Scientific, WG1403A), followed by the transfer of the proteins onto nitrocellulose membranes (EMD Millipore). The membranes were blocked for 1 h prior to incubation with the primary antibodies using 5% Milk TBST. Membranes were probed for Brd2 (Abcam, Ab139690, 1:1000), Brd3 (Abcam, Ab50818, 1:4000), Brd4 (Abcam, Ab128874, 1:1000) or our polyclonal Brd4^BD2 L387A antibody. Following overnight incubation with the primary antibodies at 4° C., the membranes were incubated with secondary antibodies (Anti-rabbit, Abcam AB216773, 1:5000 or anti-mouse, Abcam AB216774, 1:5000) and hFAB™ Rhodamine Anti-Tubulin Antibody (Biorad, 12004165, 1:10000) for one h and then imaged with a Bio-Rad imager (LI-COR Biosciences). All western blots were analysed for band intensities using Image Lab from Bio-Rad (LI-COR, Biosciences). The data extracted from these blots were then plotted and analysed using Prism (v. 8.2.0, GraphPad).
# T1 sequence (P40337 whole entry, other chains not shown, the tested form may be a part): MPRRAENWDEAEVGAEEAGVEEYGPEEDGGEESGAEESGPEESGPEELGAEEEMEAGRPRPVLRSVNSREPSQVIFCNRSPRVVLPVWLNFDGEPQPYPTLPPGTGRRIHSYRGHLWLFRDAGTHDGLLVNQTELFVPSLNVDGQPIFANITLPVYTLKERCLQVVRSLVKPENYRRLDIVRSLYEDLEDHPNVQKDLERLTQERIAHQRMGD
compound,measurement,setting,value
"CC[C@@H](C(=O)OCCOCCOCCOCC(=O)N[C@H](C(=O)N1C[C@H](O)C[C@H]1C(=O)NCc1ccc(-c2scnc2C)cc1)C(C)(C)C)[C@@H]1N=C(c2ccc(Cl)cc2)c2c(sc(C)c2C)-n2c(C)nnc21 (single isomer, unassigned) [AGB1 (46)]",loss of total target protein,[1],greater than 95%
same,cytotoxicity,[2],lack of cytotoxicity
same,cytotoxicity,[3],lack of cytotoxicity
same,on-target degradation activity after pre-treatment with MLN4924,[4]; 3 μM MLN4924 1 h,completely abrogated
same,on-target degradation activity after pre-treatment with ET-JQ1-OMe,[4]; 10 μM ET-JQ1-OMe 1 h,A similar outcome
same,on-target degradation activity after pre-treatment with VH298,[4]; 10 μM VH298 1 h,completely abrogated
same,on-target degradation activity after pre-treatment with MG132,[4]; 50 μM MG132 1 h,blocked
